What was measured:
Type in all cases: in vivo
Alopecurus myosuroides [1] = test: Herbicidal pre-emergence action; settings: pre-emergence method, 80 g/ha, greenhouse, visual assessment vs untreated controls
In short: (§1)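 Seeds sown in sandy loam and covered; WP-formulated compounds applied to the soil surface as aqueous suspension at 600 l/ha with 0.2% wetting agent, at varying rates. Greenhouse-grown; emergence damage scored visually after three weeks versus untreated controls (100% = plants dead, 0% = like control).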

Echinocloa crus-galli [2] = test: Herbicidal pre-emergence action; settings: pre-emergence method, 80 g/ha, greenhouse, visual assessment vs untreated controls
In short: as §1

Lolium multiflorum [3] = test: Herbicidal pre-emergence action; settings: pre-emergence method, 80 g/ha, greenhouse, visual assessment vs untreated controls
In short: as §1

Setaria viridis [4] = test: Herbicidal pre-emergence action; settings: pre-emergence method, 80 g/ha, greenhouse, visual assessment vs untreated controls
In short: as §1

Alopecurus myosuroides [5] = test: Herbicidal post-emergence action; settings: post-emergence method, 80 g/ha
In short: (§2)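 Greenhouse-grown weeds were treated post-emergence at the one-leaf stage, two to three weeks after sowing in sandy loam. Compounds formulated as WP were sprayed at various rates in 600 l/ha water with 0.2% wetting agent. Damage was scored visually after about three weeks versus untreated controls (0% = like control, 100% = dead).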

Echinocloa crus-galli [6] = test: Herbicidal post-emergence action; settings: post-emergence method, 80 g/ha
In short: as §2

Lolium multiflorum [7] = test: Herbicidal post-emergence action; settings: post-emergence method, 80 g/ha
In short: as §2

Setaria viridis [8] = test: Herbicidal post-emergence action; settings: post-emergence method, 80 g/ha
In short: as §2

cereals = test: Container trials with cereals in the greenhouse, use of safeners (Mefenpyr 1 day prior to herbicide application)
Method: Seeds of monocotylidonous and dicotylidonous weed and crop plants are placed in sandy loam in wood fibre pots, covered with soil and cultivated in a greenhouse under good growth conditions. Two to three weeks after sowing, the test plants are treated at the one-leaf stage. The test compounds, formulated as wettable powders (WP), are then with a water application rate of 600 l/ha (converted), with 0.2% of wetting agent added, sprayed onto the green parts of the plants in different amounts. After the test plants have been kept in the greenhouse under optimum growth conditions for about three weeks, the effect of the preparations is assessed visually in comparison to untreated controls (herbicidal effect in percent: 100% effect=the plants have died, 0% effect=like control plants).
If it is to be additionally tested as to whether safeners can improve the plant compatibility of test substances in the case of crop plants, the following options are used for applying the safeners: • Seeds of the crop plants are, before sowing, dressed with safener substance (the amount of safener stated in percent, based on the weight of the seed) • Before the application of the test substances, the crop plants are sprayed with the safener at a certain application rate per hectare (usually one day before the application of the test substances) • The safener is applied together with the test substance as a tank mix (the amount of safener stated in g/ha or as a ratio, based on the herbicide).
Container Trials with Cereals in the Greenhouse

[9] = tested on: monocotylidonous and dicotylidonous weed and crop plants; test: Herbicidal pre-emergence action (other test plants); settings: pre-emergence method, 80 g/ha, greenhouse, visual assessment vs untreated controls
In short: as §1

[10] = tested on: monocotylidonous and dicotylidonous weed and crop plants; test: Herbicidal post-emergence action (other test plants); settings: post-emergence method, 80 g/ha
In short: as §2

[11] = 10 days after application, 12.5 g of a.i./ha
[12] = 10 days after application, 25 g of a.i./ha
[13] = 10 days after application, 50 g of a.i./ha
[14] = 28 days after application, 50 g of a.i./ha
[15] = 28 days after application, 100 g of a.i./ha
[16] = 28 days after application, 12.5 g of a.i./ha
[17] = 28 days after application, 25 g of a.i./ha

Compound	herbicidal effect ALOMY (Alopecurus myosuroides [1])	herbicidal effect ECHCG (Echinocloa crus-galli [2])	herbicidal effect LOLMU (Lolium multiflorum [3])	herbicidal effect SETVI (Setaria viridis [4])	herbicidal effect against ALOMY (Alopecurus myosuroides) (Alopecurus myosuroides [5])	herbicidal effect against ECHCG (Echinochloa crus-galli) (Echinocloa crus-galli [6])	herbicidal effect against LOLMU (Lolium multiflorum) (Lolium multiflorum [7])	herbicidal effect against SETVI (Setaria viridis) (Setaria viridis [8])	Summer wheat observed (%) (cereals; [11])	Summer wheat observed (%) (cereals; [12])	Summer wheat observed (%) (cereals; [13])	herbicidal effect AVEFA [9]	herbicidal effect against AVEFA (Avena fatua) [10]	Summer barley observed (%) (cereals; [14])	Summer barley observed (%) (cereals; [15])	Summer wheat observed (%) (cereals; [16])	Summer wheat observed (%) (cereals; [17])	Summer wheat observed (%) (cereals; [14])	Summer wheat observed (%) (cereals; [15])	also measured
CCc1cc(C)cc(CC)c1C1=C(O)C2CC3(CC2C1=O)OCC(C)O3 (mixture of isomers) [I-a-10]	70%	80%	100%	60%	90%	100%	100%	90%	30%	50%	60%	50%	80%							
CCOC(=O)OC1=C(c2c(CC)cc(C)cc2CC)C(=O)C2CC3(CC12)OC(C)CC(C)O3 (mixture of isomers) [I-c-10]	100%	100%	100%	90%	90%		100%	90%				80%	100%	50%	95%	15%	50%	95%		
CCc1cc(C)cc(CC)c1C1=C([O-])C2CC3(CC2C1=O)OC(C)CC(C)O3.[Na+] (mixture of isomers) [I-f-19]	100%	100%	100%	100%	100%	100%	100%	100%				60%	100%	20%	50%	20%	90%	97%	99%	Summer barley observed (%) (cereals; [16]): 10%; Summer barley observed (%) (cereals; [17]): 10%
CCc1cc(C)cc(CC)c1C1=C(O)[C@H]2CC3(C[C@H]2C1=O)OCCCO3 (relative stereo) [I-a-11]	90%	100%	100%	70%	90%	100%	100%	100%	30%	50%	70%	50%	90%	8%	10%	10%	50%	60%	70%	
CCc1cc(C)cc(CC)c1C1=C(O)[C@H]2CC3(C[C@H]2C1=O)OCCCCO3 (relative stereo) [I-a-13]	90%	100%	100%	90%	90%	100%	100%	90%	40%	50%	60%	80%	90%							
CCc1cc(C)cc(CC)c1C1=C(O)[C@H]2CC3(C[C@H]2C1=O)OCC=CCO3 (relative stereo) [I-a-14]	100%	100%	100%	90%	90%	100%	100%	100%	50%	60%	60%	80%	90%	10%	20%	10%	30%	30%	70%	Summer barley observed (%) (cereals; [16]): 5%; Summer barley observed (%) (cereals; [17]): 8%
CCc1cc(C)cc(C)c1C1=C(O)C2CC3(CC2C1=O)OCCCO3 (stereo not shown) [I-a-58]	70%	100%	100%	100%	100%	100%	100%	100%				70%		10%	15%	10%	15%	20%	60%	Summer barley observed (%) (cereals; [17]): 5%
CCc1cc(C)cc(CC)c1C1=C([O-])C2CC3(CC2C1=O)OCC(OCc1ccccc1)CO3.[Na+] (stereo not shown) [I-f-16]	80%	60%	90%	90%	100%	100%	100%	100%				80%	100%							
CCc1cc(C)cc(CC)c1C1=C([O-])C2CC3(CC2C1=O)OCCCCO3.[Na+] (stereo not shown) [I-f-17]	80%	90%	100%	90%	100%	100%	100%	100%				60%	100%							
C=C1COC2(CC3C(=O)C(c4c(CC)cc(C)cc4CC)=C([O-])C3C2)OC1.[Na+] (stereo not shown) [I-f-20]	100%	100%	100%	100%	100%	100%	100%	100%				70%	100%							
C=C1CC2C(=O)C(c3c(CC)cc(C)cc3CC)=C([O-])C2C1.[Na+] (stereo not shown) [I-f-21]	90%	100%	100%	90%	80%	100%	100%	100%				70%	80%							

— patent US8367873B2, “Phenyl-substituted bicyclooctane-1,3-dione derivatives” (Bayer Cropscience AG, priority 2008, dated 2013)
